Measured values taken from PMC11808539 (Bioorganic & medicinal chemistry letters, 2024).

How the values were obtained:
[1] = system: broad kinase screen; conditions: cited from earlier work
[2] = system: GSK-3; assay: GSK-3 inhibition, isoform not stated; format: biochemical; conditions: no activity defined as an IC50 >10μM
[3] = system: other kinases tested having a lysine at a position comparable to Arg141 in GSK-3β; conditions: kinases with lysine at position comparable to Arg141; at 2 μM; cited from earlier work
[4] = system: MAPK5/PRAK; conditions: at 2μM; cited from earlier work

Structure (SMILES) | kinase selectivity (in words) [1] | activity (GSK-3 inhibition, in words) [2] | % inhibition [3] [%] | % inhibition [4] [%]
OC1(c2ccccc2)CSC(=S)N1Cc1ccncc1 (stereo not drawn) [Compound 3c] | the only kinases significantly inhibited by 3c were GSK-3β and GSK-3α | excellent activity | < 30 | 60
OC1(c2ccccc2)CSC(=S)N1Cc1ccccn1 (stereo not drawn) [Compound 3d] | – | no activity | – | –
OC1(c2ccccc2)CSC(=S)N1Cc1ccccc1 (stereo not drawn) [Compound 3a] | – | no activity | – | –
